Data taken from patent US20180177845A1, “METHOD FOR TREATMENT OR PREVENTION OF A CANCER” (priority 2016, published 2018).
Where no end group is shown, it is not given here.

Legend:
β4 integrin/FAK complex [1] = assay: immunoprecipitation of β4 integrin and FAK in HCT-116 cells; type: cell-based, human
Experimental: (§1) Cells or tissue samples were homogenized and extracted for Western blotting. For immunoprecipitation, proteins were incubated with antibodies as indicated at 4° C. overnight, followed by incubation for 4 hrs with protein A-Sepharose 4B beads (Sigma-Aldrich). All experiments were conducted at least three independent times.

HCT-116 cells [2] = assay: anchorage-independent growth assay, HCT-116; type: cell-based, human
Experimental: An anchorage-independent growth assay was conducted with several modifications. Briefly, 5×10^4 cells were seeded in a 0.3% agar in DMEM containing 10% FBS over the bottom 0.6% agar layer in DIVIEM. After incubation for 14 days, the number and size of colonies were scored.

β4 integrin/FAK complex [3] = assay: co-immunoprecipitation of β4 integrin and FAK in MDA-MB-231 cells; type: cell-based, human
Experimental: (§2) Various plasmid-transfected or pharmacologically treated cells or tissue samples were homogenized and extracted for Western blot analyses. About 10-20 μg whole cell lysate were used for Western blotting. A 1 mg/ml concentration of total protein from cell lysates was employed for immunoprecipitation. Some extracts subjected to immunoprecipitation were incubated with antibodies, as indicated, for 4 h at 4° C., followed by incubation for 4 h or overnight with protein A-Sepharose 4B or protein G-Sepharose beads (Sigma-Aldrich) before proceeding to Western blot analysis. Each experiment was repeated at least three independent times.

FAK phospho-Tyr397 = assay: Western blot of FAK phospho-Tyr397 in MDA-MB-231 cells; type: cell-based, human
Experimental: as §2

β4 integrin at Tyr1526 = assay: Western blot of β4 integrin tyrosine phosphorylation in MDA-MB-231 cells; type: cell-based, human; settings: 10 μM
Experimental: as §2

[4] = tested on: FAK autophosphorylation at Tyr397; assay: Western blot of FAK autophosphorylation at Tyr397 in HCT-116 cells; type: cell-based, human
Experimental: as §1

paxillin/FAK complex = assay: specificity: paxillin/FAK complex in NIH3T3; type: cell-based, mouse; settings: overexpressed in NIH3T3
Chain of paxillin/FAK complex (Q8VI36 whole entry): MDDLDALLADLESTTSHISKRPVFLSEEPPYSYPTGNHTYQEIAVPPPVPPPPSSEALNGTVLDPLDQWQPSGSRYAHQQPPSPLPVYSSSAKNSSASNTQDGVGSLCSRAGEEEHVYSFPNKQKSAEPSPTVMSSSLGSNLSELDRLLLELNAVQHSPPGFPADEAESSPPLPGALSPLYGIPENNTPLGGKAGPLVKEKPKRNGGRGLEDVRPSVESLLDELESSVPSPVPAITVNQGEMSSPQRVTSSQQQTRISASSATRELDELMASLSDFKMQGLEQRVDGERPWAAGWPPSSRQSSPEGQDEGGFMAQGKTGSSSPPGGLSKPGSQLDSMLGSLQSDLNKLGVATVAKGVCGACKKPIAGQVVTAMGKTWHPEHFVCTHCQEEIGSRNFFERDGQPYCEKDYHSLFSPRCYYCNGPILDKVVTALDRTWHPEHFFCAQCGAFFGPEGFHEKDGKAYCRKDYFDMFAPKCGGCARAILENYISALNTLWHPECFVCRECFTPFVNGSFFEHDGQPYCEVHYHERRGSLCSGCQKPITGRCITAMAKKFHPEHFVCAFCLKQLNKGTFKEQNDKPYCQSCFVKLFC
Chain of paxillin/FAK complex (P34152 whole entry, further chain): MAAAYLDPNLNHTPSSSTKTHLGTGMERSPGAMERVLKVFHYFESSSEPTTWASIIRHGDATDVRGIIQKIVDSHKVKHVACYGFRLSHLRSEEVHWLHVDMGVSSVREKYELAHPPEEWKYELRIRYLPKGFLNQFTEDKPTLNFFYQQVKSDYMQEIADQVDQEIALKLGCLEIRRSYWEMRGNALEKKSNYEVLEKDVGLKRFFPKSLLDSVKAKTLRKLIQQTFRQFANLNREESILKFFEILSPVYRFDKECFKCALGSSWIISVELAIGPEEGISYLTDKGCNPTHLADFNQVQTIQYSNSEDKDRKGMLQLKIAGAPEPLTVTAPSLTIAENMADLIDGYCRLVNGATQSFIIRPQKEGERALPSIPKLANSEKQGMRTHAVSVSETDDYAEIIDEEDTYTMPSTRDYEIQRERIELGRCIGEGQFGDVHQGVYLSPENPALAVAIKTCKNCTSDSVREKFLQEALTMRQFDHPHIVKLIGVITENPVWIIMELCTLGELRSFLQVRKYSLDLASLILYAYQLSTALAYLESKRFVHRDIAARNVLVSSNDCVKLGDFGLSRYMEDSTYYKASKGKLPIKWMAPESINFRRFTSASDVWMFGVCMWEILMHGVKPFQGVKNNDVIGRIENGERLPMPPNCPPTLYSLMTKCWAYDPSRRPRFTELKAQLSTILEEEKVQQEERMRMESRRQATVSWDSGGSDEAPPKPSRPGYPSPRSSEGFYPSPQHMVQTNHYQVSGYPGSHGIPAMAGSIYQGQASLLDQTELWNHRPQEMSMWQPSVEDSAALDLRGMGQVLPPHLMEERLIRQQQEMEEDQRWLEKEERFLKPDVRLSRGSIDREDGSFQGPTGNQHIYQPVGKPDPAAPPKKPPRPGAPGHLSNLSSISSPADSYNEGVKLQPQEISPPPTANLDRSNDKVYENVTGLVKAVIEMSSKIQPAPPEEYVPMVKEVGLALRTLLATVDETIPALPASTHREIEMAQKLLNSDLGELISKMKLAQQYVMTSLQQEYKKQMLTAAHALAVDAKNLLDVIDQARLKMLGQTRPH

NIH3T3 = assay: specificity: β1 integrin-mediated cell migration in NIH3T3; type: cell-based, mouse; settings: overexpressed in NIH3T3
MDA-MB-231 cells [5] = assay: BrdU incorporation cell proliferation assay, MDA-MB-231; type: cell-based, human; settings: MDA-MB-231 transfectants; compared to mock and triple-mutant cells
Experimental: At 24 h after transfection, 2×10^4 cells were serum starved for 24 h. Cells were then washed twice with DMEM and incubated for 16 h in DMEM plus 10% FBS and 100 μM BrdU (Sigma-Aldrich). After that, cells were fixed, permeabilized, heated with DNase I, and processed for immunofluorescence staining, with anti-BrdU (1:200, Sigma-Aldrich) antibody, as described previously^39, with a few modifications. Cells were then counted in multiple fields and scored for BrdU-positive staining in each independent experiment.

MDA-MB-231 cells [6] = assay: in vivo tumorigenesis, orthotopic injection into mammary fat pad; settings: stably expressing MDA-MB-231 cells in mammary fat pad of nude mice; 12 weeks
Experimental: (§3) All mouse experiments were approved by the Institutional Animal Care and Use Committee, National Taiwan University (Taipei, Taiwan). All experimental procedures were performed in accordance with the protocols and the ethical regulations approved by the Institutional Animal Care and Use Committees of National Taiwan University (Taipei, Taiwan). Female nu/nu mice were purchased from the National Laboratory Animal Center (Taipei, Taiwan). For tumorigenesis, 1×10^6 MDA-MB-231 stably transfected pools expressing GFP-tagged FAK/25aa, its triple (FAK/25aa^E380A/K381A/Q382A)or double (FAK/25aa^R385A/S386A) mutant, or a mock transfected control that had been selected by 500 μg/ml G418 for 2 weeks were injected into the 3rd mammary fat pad of eight-week-old female nu/nu mice. Stably transfected pools of each construct were injected in 100 μl PBS. Tumor volumes and numbers were measured at 12 weeks after injection and then excised, photographed, and weighted. For tumor metastasis, 1×10^6 MDA-MB-231 cells, described above, that were labeled with luciferase by lentiviral infection were resuspended in 100 μl PBS and injected into the tail vein of six-week-old female nu/nu mice. Lung metastasis was monitored by bioluminescent imaging using an IVIS spectrum imaging system. Lung metastasis was measured on the respective day after injection.

MDA-MB-231 cells [7] = assay: in vivo lung metastasis after tail vein injection, bioluminescence; parameters: species or system nude mice; settings: MDA-MB-231 transfectants, 84 days after injection, vs mock and triple mutant
Experimental: as §3

HCT-116 cells [8] = assay: BrdU incorporation assay, HCT-116; type: cell-based, human; settings: HCT-116 cells overexpressing the peptide
Experimental: A BrdU incorporation assay was performed. Briefly, serum-starved cells were incubated in DMEM with 10% FBS and 100 μM BrdU (Sigma-Aldrich) for 16 hrs. Cells were fixed, permeabilized, treated with DNase I, and processed for immunofluorescence staining with anti-BrdU (Sigma-Aldrich) antibody. The BrdU-positive staining cells were scored.

HCT-116 cells [9] = assay: in vivo tumorigenicity, subcutaneous xenograft mouse model; settings: ectopic expression in HCT-116 cells, subcutaneous in SCID mice; 21 days
Experimental: Here. FAK and FRNK transfectants were used as controls. […] All results are presented as the means ±s.d. from at least three independent experiments (*. p<0.05, compared with the corresponding mock control). […] An in vivo tumorigenicity assay was conducted using a xenograft mouse model by subcutaneously injecting cells described above into SCID mice. Mice were sacrificed 21 days after tumor injection. Tumor mass (left, top), protein expression (left, bottom), and tumor weight (right) of the xenografts were measured. Five mice were assessed for each group (Scale bar, 1 cm. *, p<0.05, compared with the corresponding mock control).

MDA-MB-231 cells [10] = assay: anchorage-independent growth in soft agar assay, MDA-MB-231; type: cell-based, human; settings: in comparison with the TAT alone, peptide 10 μM or 50 μM
Experimental: Experiments were performed as previously described'^9, with the following modifications. A total of 5×10^4 cells were seeded in 0.3% agar in DMEM plus 10% […] and EGF (10 ng/ml) over the bottom 0.6% agar layer in DMEM. After incubation for 14 days, the number of colonies was scored.

β4 integrin [11] = target: T1, β4 integrin (human, UniProt P16144 28-1822, limits assumed); assay: overexpression in HCT-116 cells
T1 construct: Endogenous full-length β4 integrin in lysates or immunoprecipitates; In cells it is paired with α6 integrin; also called integrin β4; ITGB4
T1 sequence (P16144 28-1822 limits assumed): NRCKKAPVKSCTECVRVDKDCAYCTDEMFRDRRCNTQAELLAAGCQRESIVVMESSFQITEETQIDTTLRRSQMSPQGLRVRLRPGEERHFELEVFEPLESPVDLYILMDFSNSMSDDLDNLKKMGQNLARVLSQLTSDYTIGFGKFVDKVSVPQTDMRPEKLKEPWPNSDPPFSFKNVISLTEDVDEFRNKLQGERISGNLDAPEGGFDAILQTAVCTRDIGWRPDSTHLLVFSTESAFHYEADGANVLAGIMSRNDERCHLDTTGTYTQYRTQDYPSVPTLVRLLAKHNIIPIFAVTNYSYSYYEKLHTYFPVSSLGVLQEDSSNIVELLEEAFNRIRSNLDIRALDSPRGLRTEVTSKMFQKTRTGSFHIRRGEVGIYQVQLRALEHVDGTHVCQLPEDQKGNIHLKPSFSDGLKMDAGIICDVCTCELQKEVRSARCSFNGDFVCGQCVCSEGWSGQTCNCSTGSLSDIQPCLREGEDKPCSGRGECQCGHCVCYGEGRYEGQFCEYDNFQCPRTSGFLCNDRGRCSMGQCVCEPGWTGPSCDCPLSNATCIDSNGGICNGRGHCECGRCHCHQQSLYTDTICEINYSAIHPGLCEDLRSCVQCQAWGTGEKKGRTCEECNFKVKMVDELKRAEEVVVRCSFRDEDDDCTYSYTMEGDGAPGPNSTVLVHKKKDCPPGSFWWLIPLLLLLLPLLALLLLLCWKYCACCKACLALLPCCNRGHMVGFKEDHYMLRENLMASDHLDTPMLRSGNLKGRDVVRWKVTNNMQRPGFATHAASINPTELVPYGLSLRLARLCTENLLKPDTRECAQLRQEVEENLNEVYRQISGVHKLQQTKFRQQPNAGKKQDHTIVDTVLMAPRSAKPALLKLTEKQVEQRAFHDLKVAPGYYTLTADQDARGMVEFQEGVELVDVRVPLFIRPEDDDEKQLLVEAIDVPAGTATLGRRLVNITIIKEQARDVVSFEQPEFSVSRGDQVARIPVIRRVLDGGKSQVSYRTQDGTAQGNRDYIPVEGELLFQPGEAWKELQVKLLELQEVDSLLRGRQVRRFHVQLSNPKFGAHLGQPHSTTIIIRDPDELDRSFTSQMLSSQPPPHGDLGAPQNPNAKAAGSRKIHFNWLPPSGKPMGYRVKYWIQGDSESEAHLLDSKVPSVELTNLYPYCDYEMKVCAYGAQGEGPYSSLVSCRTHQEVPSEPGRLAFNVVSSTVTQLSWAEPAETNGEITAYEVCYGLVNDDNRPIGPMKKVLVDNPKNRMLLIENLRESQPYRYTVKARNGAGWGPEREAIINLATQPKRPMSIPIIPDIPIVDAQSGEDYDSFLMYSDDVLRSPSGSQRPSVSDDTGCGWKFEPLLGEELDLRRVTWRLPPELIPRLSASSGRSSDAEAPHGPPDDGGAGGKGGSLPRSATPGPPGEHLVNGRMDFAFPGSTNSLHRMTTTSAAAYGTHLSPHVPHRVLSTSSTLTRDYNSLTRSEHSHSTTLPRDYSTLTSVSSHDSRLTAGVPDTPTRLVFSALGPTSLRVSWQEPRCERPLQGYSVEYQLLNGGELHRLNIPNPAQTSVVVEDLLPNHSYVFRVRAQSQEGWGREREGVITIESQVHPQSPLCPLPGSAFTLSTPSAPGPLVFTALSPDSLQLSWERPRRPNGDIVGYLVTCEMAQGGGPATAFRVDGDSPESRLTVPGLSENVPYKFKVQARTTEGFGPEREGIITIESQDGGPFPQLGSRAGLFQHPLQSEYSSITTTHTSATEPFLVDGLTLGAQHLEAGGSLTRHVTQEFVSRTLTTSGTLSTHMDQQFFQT

β4 integrin [12] = target: T1, β4 integrin; assay: Ni-bead pull-down from MDA-MB-231 lysate, anti-β4 integrin Western blot (FIG. 1(g))
β4 integrin [13] = target: T1, β4 integrin; assay: GST pull-down from HCT-116 lysate, anti-β4 integrin Western blot (FIG. 9(C))
[14] = target: T2, focal adhesion kinase (FAK) (human, UniProt Q05397 2-1052); assay: HA-tagged β4 fragments in HEK-293 cells (FIG. 9F)
T2 construct: Endogenous FAK in lysates of human cells and tissues; also called full-length FAK; FAX [sic]
T2 sequence (Q05397 2-1052 limits assumed): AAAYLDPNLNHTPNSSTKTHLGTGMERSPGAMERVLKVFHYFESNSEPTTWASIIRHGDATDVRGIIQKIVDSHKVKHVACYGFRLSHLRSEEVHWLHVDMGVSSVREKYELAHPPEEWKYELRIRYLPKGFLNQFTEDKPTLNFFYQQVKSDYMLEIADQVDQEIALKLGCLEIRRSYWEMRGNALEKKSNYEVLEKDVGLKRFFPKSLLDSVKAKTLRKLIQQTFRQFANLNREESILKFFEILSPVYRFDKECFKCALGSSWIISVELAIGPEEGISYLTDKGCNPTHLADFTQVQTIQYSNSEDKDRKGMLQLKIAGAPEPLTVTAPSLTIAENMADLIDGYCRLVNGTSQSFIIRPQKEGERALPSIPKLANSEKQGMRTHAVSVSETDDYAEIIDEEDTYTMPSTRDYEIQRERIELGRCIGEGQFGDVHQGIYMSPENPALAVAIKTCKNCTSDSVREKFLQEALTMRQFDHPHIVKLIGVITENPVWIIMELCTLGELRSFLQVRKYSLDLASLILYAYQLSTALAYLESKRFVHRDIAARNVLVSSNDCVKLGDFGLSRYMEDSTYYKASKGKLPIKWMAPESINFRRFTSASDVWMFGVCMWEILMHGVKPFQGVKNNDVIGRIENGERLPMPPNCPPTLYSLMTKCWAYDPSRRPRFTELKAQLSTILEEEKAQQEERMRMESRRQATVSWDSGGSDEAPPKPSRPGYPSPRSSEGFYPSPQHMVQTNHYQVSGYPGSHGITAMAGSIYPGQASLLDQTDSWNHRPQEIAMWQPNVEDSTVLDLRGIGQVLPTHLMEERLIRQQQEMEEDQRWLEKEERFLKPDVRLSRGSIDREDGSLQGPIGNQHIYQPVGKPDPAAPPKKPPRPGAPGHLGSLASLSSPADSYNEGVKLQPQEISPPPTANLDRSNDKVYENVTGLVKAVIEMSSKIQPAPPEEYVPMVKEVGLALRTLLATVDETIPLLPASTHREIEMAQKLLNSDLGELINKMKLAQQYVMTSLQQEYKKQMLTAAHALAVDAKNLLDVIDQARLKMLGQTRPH

CS(=O)(=O)c1cccc(CNc2nc(Nc3ccc4c(c3)CCC(=O)N4)ncc2C(F)(F)F)c1 [PF-573,228, reference compound]
β4 integrin/FAK complex formation (β4 integrin/FAK complex [1]; FAK activity inhibited, 10 μM): still formed
anchorage-independent growth (soft agar) (HCT-116 cells [2]; HCT-116 cells treated with FAK inhibitor, DMSO control): impairs

CC(C)(C)n1nc(-c2ccc(Cl)cc2)c2c(N)ncnc21 [PP2]
formation of the β4 integrin/FAK complex (β4 integrin/FAK complex [3]; MDA-MB-231 cells, 10 μM, compared to PP3- or DMSO-treated cells): markedly reduced
interaction between β4 integrin and FAK under EGF stimulation (β4 integrin/FAK complex [3]; serum-starved MDA-MB-231 cells, EGF 10 ng/ml, inhibitor 10 μM): remained absent
phosphorylation level of FAK at Tyr397 (FAK phospho-Tyr397; MDA-MB-231 cells, 10 μM): reduced
phosphorylation level of β4 integrin at Tyr1526 (β4 integrin at Tyr1526): reduced
β4 integrin and FAK association in response to EGF stimulation (β4 integrin/FAK complex [1]; EGF stimulation): ablated
β4 integrin/FAK complex formation (β4 integrin/FAK complex [1]; blockade of Src activity): decrease
FAK activation in response to EGF stimulation ([4]; HCT-116 cells, EGF stimulation): ablated
FAK activation ([4]; HCT-116 cells, blockade of Src activity): alleviate

FAK/25aa: the 376th to 400th amino acids of FAK, SEQ ID NO: 3; overexpressed GFP-tagged in cells (LANNEKQGVRSHTVSVSETDDYAEI; also: GFP tag)
level of FAK co-immunoprecipitated by β4 integrin (β4 integrin/FAK complex [3]; MDA-MB-231 cells, increased expression of the peptide): attenuated in a dose-dependent manner
FAK phospho-Tyr397 (FAK phospho-Tyr397; transfected MDA-MB-231 cells, in comparison to mock or triple-mutant transfectants): decreased
paxillin/FAK complex (paxillin/FAK complex): not affected
β1 integrin-mediated cell migration (NIH3T3): not affected
cell proliferation (MDA-MB-231 cells [5]): decreased
size and weight of tumors (MDA-MB-231 cells [6]): significant reductions
lung metastatic nodules (MDA-MB-231 cells [7]): less-developed
interaction between β4 integrin and FAK (β4 integrin/FAK complex [1]; overexpressed motif): ablated
Tyr397-autophosphorylation of FAK ([4]; transfected HCT-116 cells): diminished
cell proliferation (HCT-116 cells [8]): impaired
anchorage-independent growth (HCT-116 cells [2]; HCT-116 transfectants, compared with mock and triple-mutant cells): considerably decreased
volume and weight of implanted colon cancer tumors (HCT-116 cells [9]): significantly reduced

TAT-FAK/25aa: synthesized peptide, FAK/25aa fused with the TAT peptide; sequence GRKKRRQRRRPQLANNEKQGVRSHTVSVSETDDYAE1 (GRKKRRQRRRPQLANNEKQGVRSHTVSVSETDDYAEI)
formation of the β4 integrin/FAK complex (β4 integrin/FAK complex [3]; MDA-MB-231 cells, extracellular administration of peptide (10 μM)): capable of alleviating
foci less formed in soft agar (MDA-MB-231 cells [10]): approximately 30%

B1: GFP-tagged FAK/25aa^R385A/S386A (peptide)
chain: LANNEKQGVAAHTVSVSETDDYAEI
modifications: also: GFP tag
notes: Positions are printed in full-length FAK numbering; also called double mutant of FAK/25aa; not shown: GFP of the pEGFP vector
binding result (β4 integrin [11]): binds

B2: His-tagged FAK/N375 (other)
chain: MAAAYLDPNLNHTPSSSAKTHLGTGMERSPGAMERVLKVFHYFENSSEPTTWASIIRHGDATDVRGIIQKIVDCHKVKNVACYGLRLSHLQSEEVHWLHLDMGVSNVREKFELAHPPEEWKYELRIRYLPKGFLNQFTEDKPTLNFFYQQVKNDYMLEIADQVDQEIALKLGCLEIRRSYGEMRGNALEKKSNYEVLEKDVGLRRFFPKSLLDSVKAKTLRKLIQQTFRQFANLNREESILKFFEILSPVYRFDKECFKCALGSSWIISVELAIGPEEGISYLTDKGANPTHLADFNQVQTIQYSNSEDKDRKGMLQLKIAGAPEPLTVTAPSLTIAENMADLIDGYCRLVNGATQSFIIRPQKEGERALPSIPK
notes: Recombinant protein from E. coli; not shown: His tag
binding result (β4 integrin [12]): no binding

B3: GST-FAK/N375 (other)
chain: B2 chain
notes: Recombinant protein from E. coli; not shown: GST of the pGEX-2T vector
binding result (β4 integrin [13]): no binding

B4: β4-CalX (other, UniProt P16144 979-1084, looked up)
chain: VNITIIKEQARDVVSFEQPEFSVSRGDQVARIPVIRRVLDGGKSQVSYRTQDGTAQGNRDYIPVEGELLFQPGEAWKELQVKLLELQEVDSLLRGRQVRRFHVQLS
notes: domain: Na+/Ca2+ exchanger homologous motif (CalX); also called β4 Na+/Ca2+ exchanger homologous motif; HA-tagged β4-CalX; not shown: HA tag of the pKH3 vector
binding result [14]: no binding
